Experimental findings from patent publication US20100111874A1, “METHOD OF CANCER DETECTION AND TREATMENT” (University of Medicine and Dentistry of New Jresey, priority 2007, published 2010) are described below.

Each structure is given as a SMILES string.

Experiment [1] concerns ZR-75-1 and BT474 breast cancer cells. Nature of the experiment: Cell counting assay of CPT sensitivity. It counts as cell-based. To be noted: ZR-75-1 vs BT474 cells; one hr acute exposure.
Description: Breast cancer ZR-75-1 and BT474 cells are treated with CPT for 1 hr followed by incubation in CPT-free medium for 3 days. Cell survival is determined by cell counting using a Coulter counter as described in Materials and Methods.
Experiment [2] deals with ZR-75-1 cells stably expressing ISG15 or UbcH8 shRNA. Nature of the experiment: Clonogenic survival assay. The experiment is classed as cell-based. As to the method:
Cell survival assays. MTT assay: Cells (3000 cells/well) are plated in 96-well microtiter plates and incubated at 37° C. in a CO2 incubator. For determination of IC50, cells are treated with varying concentrations of CPT for four days. Cells are then incubated with MTT (3-(4,5-dimethylthiazol-2-yl)-2,5-diphenyltetrazolium bromide) for 4 hrs at 37° C. The dye produced by viable cells is dissolved in DMSO and the optical density measured at 570 nm. All assays are performed at least twice in six replicate wells. Clonogenic assay: Cells (100-500 cells/plate) are plated in 6-well tissue culture plates and incubated at 37° C. in a CO2 incubator. Cells are then treated with various concentrations of CPT for 1 hr. Following CPT treatment, cells are washed free of CPT and placed in fresh medium. After 10 days, survived colonies are stained with Methylene blue and counted using the Minicount machine. Cell counting assay: Logarithmically growing cells are treated with various concentrations of CPT for 1 hr. CPT is then removed by washing the plates with CPT-free medium four times. […] Cell survival is determined by counting cells using the Coulter counter after trypsinization.
Example No. 3. […] Cell lysates of ZR-75-1 clones expressing either control shRNA (lane #1) or ISG15 shRNA (lanes #2) are analyzed by 15% SDS-PAGE. […] Equal protein loading is assessed by re-probing the same membrane with anti-tubulin antibody (lower panel). […] Equal protein loading is assessed by re-probing the same membrane blot with anti-tubulin antibody (lower panels).
Example No. 4. […] Cell lysates prepared from ZR-75-1 clones expressing either control shRNA (lane #1) or UbcH8 shRNA (lanes #2 and 3, from two independent clones), and the purified UbcH8 protein (lane #4) are analyzed by 15% SDS-PAGE. […] Equal protein loading is assessed by re-probing the same membrane with anti-tubulin antibody (lower panels). […] Cell lysates prepared from ZR-75-1 clones expressing either control shRNA (lane #1) or UbcH8 shRNA (lanes #2 and 3, two independent clones), and the purified UbcH8 protein (lane #4) are analyzed by 15% SDS-PAGE. […]

Take `CC[C@@]1(O)C(=O)OCc2c1cc1n(c2=O)Cc2cc3ccccc3nc2-1` [CPT, camptothecin]: the “fold greater sensitivity to CPT based on IC50 values” in experiment [1] is recorded as “greater than 50 fold”. Moreover, the “resistance to CPT, clonogenic survival” value in experiment [2] (ZR/ISG15-shRNA1 vs control-shRNA cells, one hr acute exposure) is given as “much more resistant”; in experiment [2] (ZR/UbcH8-shRNA1 vs ZR/control-shRNA2, one-hr acute CPT exposure), “much more resistant”; in experiment [2] (ZR/UbcH8-shRNA2 vs ZR/control-shRNA2, one-hr acute CPT exposure), “much more resistant”.
